Source: article PMC8185074, “Anchor extension: a structure-guided approach to design cyclic peptides targeting enzyme active sites” (Nature Communications, 2021)
Peptide text beside a SMILES is read from it.

Columns and labels:
Format in all cases: biochemical
HDAC3 = target: T1, HDAC3 (Homo sapiens, UniProt O15379); test: HDAC3 inhibition, full IC50 measurement (Reaction Biology; fluorogenic p53 peptide RHKK(Ac)AMC)
T1 construct: purchased Reaction Biology Corporation (assay run by the CRO)
Outline: (§1)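 Deacetylation of 50 μM RHKK(Ac)AMC is measured after 1 h at 30 °C in pH 8.0 Tris buffer (1% DMSO, 1 mg/ml BSA). Developer ends the reaction; the post-plateau 360/460 nm signal is fitted to IC50, averaging replicate measurements.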

HDAC8 = target: T2, HDAC8 (Homo sapiens, UniProt Q9BY41); test: HDAC8 inhibition, full IC50 measurement (Reaction Biology; fluorogenic p53 peptide RHKK(Ac)AMC); conditions: t1/t2 replicates
T2 construct: purchased Reaction Biology Corporation (assay run by the CRO)
T2 sequence (Q9BY41 1-377): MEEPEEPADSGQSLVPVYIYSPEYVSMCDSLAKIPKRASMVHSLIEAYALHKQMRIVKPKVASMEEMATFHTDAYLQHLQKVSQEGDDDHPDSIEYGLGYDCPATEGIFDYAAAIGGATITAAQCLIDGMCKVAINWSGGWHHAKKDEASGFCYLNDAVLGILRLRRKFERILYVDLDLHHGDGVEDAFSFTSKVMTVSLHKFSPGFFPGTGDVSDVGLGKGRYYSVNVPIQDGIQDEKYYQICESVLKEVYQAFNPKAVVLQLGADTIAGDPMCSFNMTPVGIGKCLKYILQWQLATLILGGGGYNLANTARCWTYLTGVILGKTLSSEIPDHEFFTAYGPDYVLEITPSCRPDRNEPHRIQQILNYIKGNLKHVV
Outline: as §1

HDAC6 = target: T3, HDAC6 (Homo sapiens, UniProt Q9UBN7); test: HDAC6 inhibition, full IC50 measurement (Reaction Biology; fluorogenic p53 peptide RHKK(Ac)AMC)
T3 construct: purchased Reaction Biology Corporation (assay run by the CRO)
T3 sequence (Q9UBN7 1-1215): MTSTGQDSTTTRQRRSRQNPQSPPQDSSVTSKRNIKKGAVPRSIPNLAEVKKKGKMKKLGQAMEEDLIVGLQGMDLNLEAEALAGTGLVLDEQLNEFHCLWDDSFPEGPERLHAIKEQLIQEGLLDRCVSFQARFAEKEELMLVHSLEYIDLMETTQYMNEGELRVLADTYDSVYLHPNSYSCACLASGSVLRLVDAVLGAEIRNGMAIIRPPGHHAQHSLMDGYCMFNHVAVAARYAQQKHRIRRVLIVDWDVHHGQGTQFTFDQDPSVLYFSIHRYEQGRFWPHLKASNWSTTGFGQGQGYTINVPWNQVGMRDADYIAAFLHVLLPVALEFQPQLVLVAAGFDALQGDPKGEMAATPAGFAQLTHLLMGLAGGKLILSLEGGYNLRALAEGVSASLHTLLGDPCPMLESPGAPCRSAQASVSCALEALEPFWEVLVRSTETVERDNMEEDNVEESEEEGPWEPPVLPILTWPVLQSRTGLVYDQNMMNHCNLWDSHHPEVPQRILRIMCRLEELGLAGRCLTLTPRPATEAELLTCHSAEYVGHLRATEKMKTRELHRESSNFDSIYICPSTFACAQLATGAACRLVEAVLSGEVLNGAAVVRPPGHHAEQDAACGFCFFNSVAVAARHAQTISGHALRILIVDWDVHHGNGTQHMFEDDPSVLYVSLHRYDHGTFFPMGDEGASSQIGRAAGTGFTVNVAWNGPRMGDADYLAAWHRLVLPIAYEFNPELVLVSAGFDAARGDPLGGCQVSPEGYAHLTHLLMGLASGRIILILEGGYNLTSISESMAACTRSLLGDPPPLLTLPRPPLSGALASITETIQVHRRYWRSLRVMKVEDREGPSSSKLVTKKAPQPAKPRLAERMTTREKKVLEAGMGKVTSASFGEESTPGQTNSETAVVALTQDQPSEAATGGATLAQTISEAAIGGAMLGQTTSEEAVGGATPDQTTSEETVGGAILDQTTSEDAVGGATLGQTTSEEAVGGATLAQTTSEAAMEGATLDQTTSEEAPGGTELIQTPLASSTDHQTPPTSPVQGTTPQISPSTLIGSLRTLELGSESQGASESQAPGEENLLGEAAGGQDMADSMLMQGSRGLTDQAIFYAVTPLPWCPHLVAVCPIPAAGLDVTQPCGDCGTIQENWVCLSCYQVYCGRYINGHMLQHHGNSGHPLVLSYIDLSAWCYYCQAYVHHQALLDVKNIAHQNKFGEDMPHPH
Outline: as §1

T1 sequence (O15379 whole entry): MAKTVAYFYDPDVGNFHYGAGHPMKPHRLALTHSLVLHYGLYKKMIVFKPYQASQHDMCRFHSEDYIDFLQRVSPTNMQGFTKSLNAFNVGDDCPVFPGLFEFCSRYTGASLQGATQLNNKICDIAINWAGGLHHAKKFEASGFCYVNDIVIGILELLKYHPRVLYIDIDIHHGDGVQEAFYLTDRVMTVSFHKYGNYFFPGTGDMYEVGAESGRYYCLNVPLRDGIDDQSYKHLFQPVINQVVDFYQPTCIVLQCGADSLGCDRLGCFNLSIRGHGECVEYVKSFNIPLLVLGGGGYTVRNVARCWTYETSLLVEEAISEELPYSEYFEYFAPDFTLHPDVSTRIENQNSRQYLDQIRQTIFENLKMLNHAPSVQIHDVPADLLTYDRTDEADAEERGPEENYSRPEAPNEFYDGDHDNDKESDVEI
T1 sequence (Q9Y618 395-489 partner limits assumed): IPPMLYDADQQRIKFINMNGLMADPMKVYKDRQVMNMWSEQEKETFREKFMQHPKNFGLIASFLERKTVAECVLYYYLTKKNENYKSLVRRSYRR

Compound: N=C(N)NCCC[C@H]1NC(=O)[C@@H]2CCCN2C(=O)[C@H](CO)NC(=O)[C@@H](Cc2c[nH]cn2)NC(=O)[C@H](CCCCCS)NC(=O)[C@H](CCCCN)NC(=O)[C@H](Cc2ccc(O)cc2)NC(=O)[C@H]2CCCN2C(=O)[C@@H](CCC(N)=O)NC1=O [des3.1.0, SHA-dHis-Ser-Pro-dArg-dGln-dPro-Tyr-Lys] (HELM PEPTIDE1{K.[O=C([C@H](CCCCCS)N[*:1])[*:2]].[dH].S.P.[dR].[dQ].[dP].Y}$PEPTIDE1,PEPTIDE1,1:R1-9:R2$$$V2.0)
- HDAC3 activity raw data (signal) (HDAC3; Conc. 1.00E-05 M, t1): 46436
- HDAC3 activity raw data (signal) (HDAC3; Conc. 1.00E-05 M, t2): 68834
- HDAC3 activity raw data (signal) (HDAC3; Conc. 1.11E-06 M, t1): 407446
- HDAC3 activity raw data (signal) (HDAC3; Conc. 1.11E-06 M, t2): 414242
- HDAC3 activity raw data (signal) (HDAC3; Conc. 1.23E-07 M, t1): 842197
- HDAC3 activity raw data (signal) (HDAC3; Conc. 1.23E-07 M, t2): 849517
- HDAC3 activity raw data (signal) (HDAC3; Conc. 1.37E-08 M, t1): 932057
- HDAC3 activity raw data (signal) (HDAC3; Conc. 1.37E-08 M, t2): 998355
- HDAC3 activity raw data (signal) (HDAC3; Conc. 1.52E-09 M, t1): 936917
- HDAC3 activity raw data (signal) (HDAC3; Conc. 1.52E-09 M, t2): 1040178
- HDAC3 activity raw data (signal) (HDAC3; Conc. 3.33E-06 M, t1): 127237
- HDAC3 activity raw data (signal) (HDAC3; Conc. 3.33E-06 M, t2): 217535
- HDAC3 activity raw data (signal) (HDAC3; Conc. 3.70E-07 M, t1): 580195
- HDAC3 activity raw data (signal) (HDAC3; Conc. 3.70E-07 M, t2): 672322
- HDAC3 activity raw data (signal) (HDAC3; Conc. 4.12E-08 M, t1): 931839
- HDAC3 activity raw data (signal) (HDAC3; Conc. 4.12E-08 M, t2): 959771
- HDAC3 activity raw data (signal) (HDAC3; Conc. 4.57E-09 M, t1): 999086
- HDAC3 activity raw data (signal) (HDAC3; Conc. 4.57E-09 M, t2): 1037845
- HDAC3 activity raw data (signal) (HDAC3; Conc. 5.08E-10 M, t1): 932822
- HDAC3 activity raw data (signal) (HDAC3; Conc. 5.08E-10 M, t2): 1013267
- HDAC8 activity raw data (signal) (HDAC8; peptide conc. 1.00E-05 M, listed as des3.1.0_t1): 177071
- HDAC8 activity raw data (signal) (HDAC8; peptide conc. 1.00E-05 M, listed as des3.1.0_t2): 217357
- HDAC8 activity raw data (signal) (HDAC8; peptide conc. 1.11E-06 M, listed as des3.1.0_t1): 702584
- HDAC8 activity raw data (signal) (HDAC8; peptide conc. 1.11E-06 M, listed as des3.1.0_t2): 678372
- HDAC8 activity raw data (signal) (HDAC8; peptide conc. 1.23E-07 M, listed as des3.1.0_t1): 829409
- HDAC8 activity raw data (signal) (HDAC8; peptide conc. 1.23E-07 M, listed as des3.1.0_t2): 942877
- HDAC8 activity raw data (signal) (HDAC8; peptide conc. 1.37E-08 M, listed as des3.1.0_t1): 914161
- HDAC8 activity raw data (signal) (HDAC8; peptide conc. 1.37E-08 M, listed as des3.1.0_t2): 1065224
- HDAC8 activity raw data (signal) (HDAC8; peptide conc. 1.52E-09 M, listed as des3.1.0_t1): 932207
- HDAC8 activity raw data (signal) (HDAC8; peptide conc. 1.52E-09 M, listed as des3.1.0_t2): 1002240
- HDAC8 activity raw data (signal) (HDAC8; peptide conc. 3.33E-06 M, listed as des3.1.0_t1): 396779
- HDAC8 activity raw data (signal) (HDAC8; peptide conc. 3.33E-06 M, listed as des3.1.0_t2): 364112
- HDAC8 activity raw data (signal) (HDAC8; peptide conc. 3.70E-07 M, listed as des3.1.0_t1): 821171
- HDAC8 activity raw data (signal) (HDAC8; peptide conc. 3.70E-07 M, listed as des3.1.0_t2): 831364
- HDAC8 activity raw data (signal) (HDAC8; peptide conc. 4.12E-08 M, listed as des3.1.0_t1): 888545
- HDAC8 activity raw data (signal) (HDAC8; peptide conc. 4.12E-08 M, listed as des3.1.0_t2): 997244
- HDAC8 activity raw data (signal) (HDAC8; peptide conc. 4.57E-09 M, listed as des3.1.0_t1): 750196
- HDAC8 activity raw data (signal) (HDAC8; peptide conc. 4.57E-09 M, listed as des3.1.0_t2): 946901
- HDAC8 activity raw data (signal) (HDAC8; peptide conc. 5.08E-10 M, listed as des3.1.0_t1): 807432
- HDAC8 activity raw data (signal) (HDAC8; peptide conc. 5.08E-10 M, listed as des3.1.0_t2): 990498
- HDAC6 activity raw data (signal) (HDAC6; Conc. 1.00E-05 M, t1): 11537
- HDAC6 activity raw data (signal) (HDAC6; Conc. 1.00E-05 M, t2): 13038
- HDAC6 activity raw data (signal) (HDAC6; Conc. 1.11E-06 M, t1): 76742
- HDAC6 activity raw data (signal) (HDAC6; Conc. 1.11E-06 M, t2): 90822
- HDAC6 activity raw data (signal) (HDAC6; Conc. 1.23E-07 M, t1): 159657
- HDAC6 activity raw data (signal) (HDAC6; Conc. 1.23E-07 M, t2): 168002
- HDAC6 activity raw data (signal) (HDAC6; Conc. 1.37E-08 M, t1): 160112
- HDAC6 activity raw data (signal) (HDAC6; Conc. 1.37E-08 M, t2): 166776
- HDAC6 activity raw data (signal) (HDAC6; Conc. 1.52E-09 M, t1): 119928
- HDAC6 activity raw data (signal) (HDAC6; Conc. 1.52E-09 M, t2): 158551
- HDAC6 activity raw data (signal) (HDAC6; Conc. 3.33E-06 M, t1): 37434
- HDAC6 activity raw data (signal) (HDAC6; Conc. 3.33E-06 M, t2): 38190
- HDAC6 activity raw data (signal) (HDAC6; Conc. 3.70E-07 M, t1): 143033
- HDAC6 activity raw data (signal) (HDAC6; Conc. 3.70E-07 M, t2): 130317
- HDAC6 activity raw data (signal) (HDAC6; Conc. 4.12E-08 M, t1): 144961
- HDAC6 activity raw data (signal) (HDAC6; Conc. 4.12E-08 M, t2): 163766
- HDAC6 activity raw data (signal) (HDAC6; Conc. 4.57E-09 M, t1): 147758
- HDAC6 activity raw data (signal) (HDAC6; Conc. 4.57E-09 M, t2): 164399
- HDAC6 activity raw data (signal) (HDAC6; Conc. 5.08E-10 M, t1): 111941
- HDAC6 activity raw data (signal) (HDAC6; Conc. 5.08E-10 M, t2): 129043
